According to patent US6172038A, “Antipathogenic peptides and compositions comprising them” (priority 1996, dated 2001):

Columns and labels:
Format in all cases: cell-based
Escherichia coli D21 = experiment: Antibacterial activity (MIC), growth inhibition in 96-well plates
[1] = tested on: Acinetobacter calcoaceticus Ac11; experiment: as above; conditions: 100% inhibition of growth after 18-20 h at 37° C.
Bacillus megaterium Bm11 = experiment: as above; conditions: 100% inhibition of growth after 18-20 h at 37° C.
[2] = tested on: Pseudomonas aeruginosa ATCC 27853; experiment: Antibacterial activity (MIC), growth inhibition in 96-well plates; also synergy with tetracycline
Protocol: (viii) Antibacterial activity of the peptides.
Antibacterial activity of the mixtures was determined as described in Experimental procedures, section (xii).

[3] = tested on: Bacillus subtilis ATCC 6051; experiment: Antibacterial activity (MIC), growth inhibition in 96-well plates; conditions: 100% inhibition of growth after 18-20 h at 37° C.
[4] = tested on: human red blood cells (hRBC); experiment: Hemolysis of human red blood cells; conditions: 50 μM peptide, 30 min at 37° C.
Protocol: (ix) Hemolysis of human red blood cells. The peptides were tested for their hemolytic activities against human red blood cells (hRBC). Fresh hRBC with EDTA were rinsed 3 times with PBS (35 mM phosphate buffer/0.15 M NaCl, pH 7.3) by centrifugation for 10 min at 800 g and resuspended in PBS. Peptides dissolved in PBS were then added to 50 μL of a solution of the stock hRBC in PBS to reach a final volume of 100 μL (final erythrocyte concentration, 5% v/v). The resulting suspension was incubated under agitation for 30 min at 37° C. The samples were then centrifuged at 800 g for 10 min. Release of hemoglobin was monitored by measuring the absorbance of the supernatant at 540 nm. Controls for zero hemolysis (blank) and 100% hemolysis consisted of hRBC suspended in PBS and Triton 1%, respectively.

[5] = tested on: P. aeruginosa and E. coli; experiment: Effect of pooled human serum on antibacterial activity
Protocol: (vi) Preparation of serunl Blood was collected from five volunteers and allowed to clot at room temperature for 4 h. The blood was then centrifuged for 15 min at 1500 g, and the serum was removed and pooled. The serum complement was inactivated by heating at 56° C. for 30 min.
(viii) Antibacterial activity of the peptides. The antibacterial activity of the diastereomers was examined in sterile 96-well plates (Nunc F96 microtiter plates) in a final volume of 100 μL as follows: Aliquots (50 μl) of a suspension containing bacteria at a concentration of 10^6 Colony-Forming Units (CFU)/ml LB (Lauria broth) medium were added to 50 μL of water or 66% pooled normal human serum in PBS, containing the peptide in 2-fold serial dilutions. Growth inhibition was determined by measuring the absorbance at 492 nm with a Microplate autoreader El309 (Bio-tek Instruments), following incubation for 18-20 h at 37° C. […] The bacteria used were: Escherichia coli D21, Pseudomonas aeruginosa ATCC 27853, Acinetobacter calcoaceticus Acl1, Salmonella typhimurium LT2, Bacillus megaterium Bml1, Micrococcus luteus ATCC 9341, Bacillus subtilis ATCC 6051.

[6] = 100% inhibition of growth after 18-20 h at 37° C.

Substance: dermaseptin S [reference compound]
- Minimal Inhibitory Concentration E. coli (D21) 0% Serum (Escherichia coli D21; 0% Serum): 6 µM
- Minimal Inhibitory Concentration E. coli (D21) 33% Serum (Escherichia coli D21; 33% pooled human serum): 50 µM
- Minimal Inhibitory Concentration E. coli (D21) (Escherichia coli D21; [6]): 6 µM
- Minimal Inhibitory Concentration A. calcoaceticus (Ac11) [1]: 3 µM
- Minimal Inhibitory Concentration B. megaterium (Bm11) (Bacillus megaterium Bm11): 0.5 µM
- Minimal Inhibitory Concentration P. aeruginosa (ATCC-27853) 0% Serum ([2]; 0% Serum): 25 µM
- Minimal Inhibitory Concentration P. aeruginosa (ATCC-27853) 33% Serum ([2]; 33% pooled human serum): 200 µM
- Minimal Inhibitory Concentration P. aeruginosa (ATCC 27853) [2, 6]: 25 µM
- Minimal Inhibitory Concentration B. subtilis (ATCC 6051) [3]: 4 µM
- % hemolysis at 50 μM peptide [4]: 9%
- fold less active in the presence of serum [5]: 8-10 fold
